Source: patent US20260219259A1, “METHOD FOR QUANTIFYING INSULIN SECRETION CAPACITY IN HUMAN CELL” (JUNTENDO EDUCATIONAL FOUNDATION, priority 2023, published 2026)

Test system: Huh7 cells
Experiment: Insulin production in Huh7 cells expressing Ngn3, Mafa and Pdx1, insulin quantified using HISCL HI-1000
Assay type: cell-based, human
Details: concentration of from 1 to 30 nM; FIG. 8
Description: The recombinant SW872 cells that express 3 genes Ngn3, Mafa, and Pdx1 used here were expanded by long-term culture, and the resulting cells were subjected to the same experiment as above. […] Accordingly, a liver-derived cell line Huh7 was infected with Sendai virus vectors (TOKIWA-Bio Inc.) that express 3 genes Ngn3, Mafa, and Pdx1, cultured in a differentiation medium for β cells for 24 hours, and then transfected with expression plasmids of human KLF9 gene and human UCN3 gene using Lipofectamine 3000, and the amount of insulin produced was measured 5 days later. The expression plasmids of human KLF9 gene and human UCN3 gene were prepared by PCR and In-Fusion ligation reaction in the same manner as the method described in Example 3(1) using primers shown in SEQ ID NOs: 65 and 66 and SEQ ID NOS: 69 and 70. pEBMulti-Hyg was used as a negative control, and pEBMulti-hIns was used as a positive control. […] Insulin was quantified using HISCL HI-1000 (Sysmex Corp.). […]
Human SW872 cells that produce hIns-HiBiT5 were infected with Sendai virus vectors that express 3 genes Ngn3, Mafa, and Pdx1 in the same manner as in Example 4, and cultured in a differentiation medium for β cells for 24 hours. […] The method for quantifying insulin was performed in the same manner as in Example 4. […]

CCCC(CCC)C(=O)O [valproic acid]
insulin production from the Huh7 cells: promoted insulin production
